# Reference: PubChem BioAssay (NCI)
#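 Protocol summary: plate cells (96-well), add compound at 5 concentrations, incubate 48 h, interpolate endpoints linearly. At the GI50, growth is halved. The concentration for full growth arrest is given as TGI.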
# Test system: MDA-MB-468 breast
# Experiment: DTP human tumour cell line panel, 48 h
SMILES,GI50 [nM],TGI [nM]
CC(=O)NC1C(O[C@H]2C[C@H]3[C@@H]4CC=C5C[C@@H](O)CC[C@]5(C)[C@H]4CC[C@]3(C)[C@H]2[C@H](C)C(=O)CCC(C)C)OCC(O)C1O (stereo partly drawn),3340,10400
CCC(c1ccccc1)c1noc(CCN(CC)CC)n1 (stereo not drawn),2460,8050
CCCCS(=O)c1sc2nc(-c3cccs3)cc(-c3ccccc3)c2c1N (stereo not drawn),9930,67300
CCCCCCCCCCCCCCNC(=O)Nc1ccc(Cl)c(Cl)c1,2820,9820
COCCOC1=C(Cl)C(=O)c2ccccc2C1=O,1590,3220
Cc1cc(Cl)nc(N(CCNc2ccnc3cc(Cl)ccc23)Cc2ccco2)n1,1620,3460
CC(C)[C@@H]1CC[C@]2(CO2)[C@@H]2C(=O)OCC(C(=O)O)=C[C@H]21,443,> 27200
Cn1ccnc1C(=O)/C=C/C=C/c1ccc(C(=O)Nc2ccc(F)cc2)cc1,1510,10500
COCCN(Cc1ccc(F)cc1)c1ccc(CO)c(Cl)c1,40.6,163
Cc1cc(Br)c(NC(=O)c2c(-c3c(Cl)cccc3Cl)noc2C)c(Br)c1,> 100000,> 100000
Nc1nccc(-c2c(-c3ccc(F)cc3)nn3cc(C(F)(F)F)ccc23)n1,> 25000,> 25000
Cc1cnc(C(=O)NNc2nc3sc4c(c3c(=O)[nH]2)C(C)CCC4)cn1 (stereo not drawn),1810,6080
COc1ccc(-c2[nH]c3ccc(OC)cc3c2C=C(C#N)C#N)cc1,494,> 100000
COc1ccc(-c2nc3ccc(Cc4ccc5nc(-c6ccc(OC)cc6)[nH]c5c4)cc3[nH]2)cc1,26,155
O=C1c2cc3c(cc2-c2c1c1ccc(Cl)cc1c(=O)n2C[C@H](O)CO)OCO3,17.4,55.3
C#Cc1ccc(-n2c(/C=C/c3ccc(O)cc3)nc3ncccc3c2=O)cc1,2310,7080
CCCCCC(=O)O[C@]1(C(C)=O)CCC2C3CCC4=CC(=O)CC[C@]4(C)C3CC[C@@]21C (stereo partly drawn),1730,6790
COc1ccccc1CNCCN1C(=O)c2ccc3c4c(ccc(c24)C1=O)C(=O)N(CCNCc1ccccc1OC)C3=O,426,893
COc1cc(-c2nccc3[nH]c(-c4ccc5cc[nH]c5c4)nc23)cc(OC)c1OC,17.6,1560
COc1cc(/C=C/c2cc(/C=C/c3ccc(O)c(OC)c3)n(C(=O)c3ccccc3Br)n2)ccc1O,2240,5810
CN1CCN(c2c(F)cc(NC3=C(Cl)C(=O)c4ncccc4C3=O)cc2F)CC1,1360,3210
O=C(COc1ccc(/C=C2\Oc3ccccc3C2=O)cc1)Nc1nc2ccccc2s1,487,75200
COc1ccc(/C=C2\CCC/C(=C\c3ccc(OC)c(OC)c3)C2=O)cc1OC,940,5470
Clc1ccc2oc3c(NCCCn4ccnc4)c4ccccc4nc3c2c1,14700,69200
